US12493040B2, “Cancer detection method using sense of smell of nematode” (HIROTSU BIO SCIENCE INC., priority 2013, dated 2025)

System: RNAi-treated eri-1 (mg366) nematodes
Test: RNAi screening of olfactory receptor genes: chemotaxis assay of RNAi-treated nematodes to odorants
Assay type: in vivo, Caenorhabditis elegans
Settings: low concentration of attractant
Method in brief: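 Chemotaxis of adult RNAi-fed eri-1 (mg366) nematodes (30–50 per test) was measured toward low (1 μl, 10^−3 or 10^−4 dilution) or high (1 and 5 μl neat) odorant doses. Knockdown: 4 days feeding on E. coli from Ahringer library with IPTG and ampicillin. Differences called by z score at ±1.96, weaker cutoff ±0.96.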

Work on `Cc1nc(C)c(C)s1` [trimethylthiazole] yielded a chemotaxis index (Control nematodes) of 0.64 ± 0.015, a chemotaxis index (srh-10 RNAi-treated nematodes) of 0.88 and a chemotaxis index (srh-11 RNAi-treated nematodes) of 0.85. It also gave a chemotaxis index (srh-15 RNAi-treated nematodes) of 0.91, a chemotaxis index (srh-16 RNAi-treated nematodes) of 0.49 and a chemotaxis index (srh-18 RNAi-treated nematodes) of 0.91. For the same compound, the chemotaxis index (srh-19 RNAi-treated nematodes) was 0.88, the chemotaxis index (srh-22 RNAi-treated nematodes) was 0.75 and the chemotaxis index (srh-23 RNAi-treated nematodes) was 0.78. The chemotaxis index (srh-24 RNAi-treated nematodes) was 0.92, the chemotaxis index (srh-25 RNAi-treated nematodes) was 0.95 and the chemotaxis index (srh-27 RNAi-treated nematodes) was 0.71. It also gave a chemotaxis index (srh-28 RNAi-treated nematodes) of 0.92, a chemotaxis index (srh-36 RNAi-treated nematodes) of 0.51 and a chemotaxis index (srh-37 RNAi-treated nematodes) of 0.87. For the same compound, the chemotaxis index (srh-39 RNAi-treated nematodes) was 0.45, the chemotaxis index (srh-40 RNAi-treated nematodes) was 0.73 and the chemotaxis index (srh-41 RNAi-treated nematodes) was 0.85. It also gave a chemotaxis index (srh-44 RNAi-treated nematodes) of 0.90, a chemotaxis index (srh-45 RNAi-treated nematodes) of 0.73 and a chemotaxis index (srh-46 RNAi-treated nematodes) of 0.83. For the same compound, the chemotaxis index (srh-48 RNAi-treated nematodes) was 0.65, the chemotaxis index (srh-49 RNAi-treated nematodes) was 0.59 and the chemotaxis index (srh-50 RNAi-treated nematodes) was 0.84. For the same compound, the chemotaxis index (srh-51 RNAi-treated nematodes) was 0.64, the chemotaxis index (srh-52 RNAi-treated nematodes) was 0.55 and the chemotaxis index (srh-55 RNAi-treated nematodes) was 0.56. It also gave a chemotaxis index (srh-59 RNAi-treated nematodes) of 0.37, a chemotaxis index (srh-60 RNAi-treated nematodes) of 0.79 and a chemotaxis index (srh-61 RNAi-treated nematodes) of 0.70. For the same compound, the chemotaxis index (srh-67 RNAi-treated nematodes) was 0.63, the chemotaxis index (srh-68 RNAi-treated nematodes) was 0.57 and the chemotaxis index (srh-69 RNAi-treated nematodes) was 0.75. It also gave a chemotaxis index (srh-70 RNAi-treated nematodes) of 0.78, a chemotaxis index (srh-71 RNAi-treated nematodes) of 0.85 and a chemotaxis index (srh-72 RNAi-treated nematodes) of 0.58. For the same compound, the chemotaxis index (srh-74 RNAi-treated nematodes) was 0.44, the chemotaxis index (srh-75 RNAi-treated nematodes) was 0.54 and the chemotaxis index (srh-77 RNAi-treated nematodes) was 0.52. It also gave a chemotaxis index (srh-79 RNAi-treated nematodes) of 0.42, a chemotaxis index (srh-80 RNAi-treated nematodes) of 0.39 and a chemotaxis index (srh-82 RNAi-treated nematodes) of 0.71. For the same compound, the chemotaxis index (srh-83 RNAi-treated nematodes) was 0.86, the chemotaxis index (srh-97 RNAi-treated nematodes) was 0.77 and the chemotaxis index (srh-99 RNAi-treated nematodes) was 0.65. For the same compound, the chemotaxis index (srh-100 RNAi-treated nematodes) was 0.62, the chemotaxis index (srh-104 RNAi-treated nematodes) was 0.65 and the chemotaxis index (srh-105 RNAi-treated nematodes) was 0.66. It also gave a chemotaxis index (srh-109 RNAi-treated nematodes) of 0.76, a chemotaxis index (srh-111 RNAi-treated nematodes) of 0.37 and a chemotaxis index (srh-113 RNAi-treated nematodes) of 0.83. For the same compound, the chemotaxis index (srh-115 RNAi-treated nematodes) was 0.47, the chemotaxis index (srh-116 RNAi-treated nematodes) was 0.56 and the chemotaxis index (srh-118 RNAi-treated nematodes) was 0.73. It also gave a chemotaxis index (srh-119 RNAi-treated nematodes) of 0.71, a chemotaxis index (srh-120 RNAi-treated nematodes) of 0.72 and a chemotaxis index (srh-122 RNAi-treated nematodes) of 0.44. For the same compound, the chemotaxis index (srh-123 RNAi-treated nematodes) was 0.56, the chemotaxis index (srh-125 RNAi-treated nematodes) was 0.70 and the chemotaxis index (srh-128 RNAi-treated nematodes) was 0.62. For the same compound, the chemotaxis index (srh-129 RNAi-treated nematodes) was 0.69, the chemotaxis index (srh-130 RNAi-treated nematodes) was 0.70 and the chemotaxis index (srh-214 RNAi-treated nematodes) was 0.78. For the same compound, the chemotaxis index (srh-216 RNAi-treated nematodes) was 0.73, the chemotaxis index (srh-217 RNAi-treated nematodes) was 0.60 and the chemotaxis index (srh-220 RNAi-treated nematodes) was 0.52. The chemotaxis index (srh-222 RNAi-treated nematodes) was 0.58, the chemotaxis index (srh-223 RNAi-treated nematodes) was 0.76 and the chemotaxis index (srh-227 RNAi-treated nematodes) was 0.76. It also gave a chemotaxis index (srh-229 RNAi-treated nematodes) of 0.69, a chemotaxis index (srh-233 RNAi-treated nematodes) of 0.38 and a chemotaxis index (srh-235 RNAi-treated nematodes) of 0.58. The chemotaxis index (srh-236 RNAi-treated nematodes) was 0.64, the chemotaxis index (srh-239 RNAi-treated nematodes) was 0.84 and the chemotaxis index (srh-241 RNAi-treated nematodes) was 0.85. The chemotaxis index (srh-243 RNAi-treated nematodes) was 0.63, the chemotaxis index (srh-244 RNAi-treated nematodes) was 0.76 and the chemotaxis index (srh-247 RNAi-treated nematodes) was 0.54. The chemotaxis index (srh-250 RNAi-treated nematodes) was 0.58, the chemotaxis index (srh-251 RNAi-treated nematodes) was 0.64 and the chemotaxis index (srh-252 RNAi-treated nematodes) was 0.64. It also gave a chemotaxis index (srh-258 RNAi-treated nematodes) of 0.75, a chemotaxis index (srh-261 RNAi-treated nematodes) of 0.72 and a chemotaxis index (srh-264 RNAi-treated nematodes) of 0.74. For the same compound, the chemotaxis index (srh-266 RNAi-treated nematodes) was 0.25, the chemotaxis index (srh-274 RNAi-treated nematodes) was 0.60 and the chemotaxis index (srh-275 RNAi-treated nematodes) was 0.53. For the same compound, the chemotaxis index (srh-276 RNAi-treated nematodes) was 0.59, the chemotaxis index (srh-277 RNAi-treated nematodes) was 0.65 and the chemotaxis index (srh-279 RNAi-treated nematodes) was 0.61. For the same compound, the chemotaxis index (srh-281 RNAi-treated nematodes) was 0.55, the chemotaxis index (srh-282 RNAi-treated nematodes) was 0.79 and the chemotaxis index (srh-283 RNAi-treated nematodes) was 0.56. It also gave a chemotaxis index (srh-284 RNAi-treated nematodes) of 0.59, a chemotaxis index (srh-291 RNAi-treated nematodes) of 0.91 and a chemotaxis index (srh-292 RNAi-treated nematodes) of 0.78. The chemotaxis index (srh-293 RNAi-treated nematodes) was 0.82, the chemotaxis index (srh-297 RNAi-treated nematodes) was 0.56 and the chemotaxis index (srh-298 RNAi-treated nematodes) was 0.82. For the same compound, the chemotaxis index (srh-308 RNAi-treated nematodes) was 0.30.
